This note sets out measurements from ChEMBL document CHEMBL1158934, “Anthelmintic polyfunctional nitrogen-containing terpenoids from marine sponges” (J Nat Prod, 1991).

The structures appear in SMILES notation. The source made the active and inactive calls. The rule behind the calls is not given here.

Common to all, as to format: functional, organism-based
Assay [1] has as its system Nippostrongylus brasiliensis. Put plainly: Antimicrobial activity against Nippostrongylus brasiliensis.
In a further assay the test system is Staphylococcus aureus. Put plainly: Antimicrobial activity against Staphylococcus aureus.
The next assay concerns Candida albicans. Put plainly: Antimicrobial activity against Candida albicans.
Assay [2] deals with Trichophyton mentagrophytes. Put plainly: Antimicrobial activity against Trichophyton mentagrophytes.

Regarding `[C-]#[N+][C@@H]1[C@H](C(C)C)CC[C@@H](C)[C@@]12C=C(C)CC2`, in assay [1], the outcome was inactive. The outcome (in the assay on Staphylococcus aureus; in the assay with Candida albicans; in assay [2]) was Active. With `[C-]#[N+][C@@H]1[C@H]2[C@H](CC[C@@]1(C)O)C(=C)CC[C@@H]2[C@@]1(C)CC[C@H](Cl)C(C)(C)O1`, the result in assay [1] was inactive. As for `[C-]#[N+][C@@H]1[C@H]2[C@H](CC[C@@]1(C)O)[C@](C)(N=C=S)CC[C@@H]2[C@@]1(C)CC[C@H](Cl)C(C)(C)O1`, the outcome (in assay [1]; in the assay on Staphylococcus aureus; in the assay on Candida albicans; in assay [2]) was Active. For the molecule `CC1=C[C@H]2[C@@H](CC1)[C@@](C)(N=S)CC[C@H]2C(C)C`, the outcome in assay [1] was inactive. In the case of `CC1=CC[C@@H](C(C)C)[C@H]2C[C@@](C)(N=C=S)CC[C@@H]12` (relative stereo), the result in assay [1] was inactive. On the same count and under the same terms, the same measure for `CC1=CC2=C(C(C)C)CC[C@](C)(N=C=S)[C@@H]2CC1`: “inactive”; for `CC1(C)O[C@@](C)([C@H]2CC[C@@](C)(N=C=S)[C@H]3CC[C@@](C)(O)[C@H](NC=O)[C@@H]32)CC[C@@H]1Cl`: “inactive”.
